According to patent US5936065A, “CS-1 peptidomimetics, compositions and methods of using the same” (Cytel Corporation, priority 1995, dated 1999):
Square brackets hold non-standard residues; d marks the D form. Peptide text beside a SMILES is read from it. * marks the point of attachment. PhAc = O=C(Cc1ccccc1)*

Assays:
[1] = target: T1, VLA-4 receptor (Homo sapiens, UniProt P05556+P13612); test: In vitro binding assay: inhibition of binding of 51Cr-labeled Jurkat cells to solid phase-bound CS-1 compound (SEQ ID NO:1); assay type: cell-based; details: for Relative Potency: binding inhibition potency (IC50) normalized to standard compound of SEQ ID NO:3 = 1, multiple assays averaged, about one-tenth or less assigned zero
T1 construct: inflammatory cells that contain the VLA-4 receptor [Jurkat cells; host or cells: Jurkat cells (human T lymphoblastic line)
Experimental: Binding inhibition is measured here as a concentration of compound that inhibits one-half the binding between a standard number of Jurkat cells and a standard amount of CS-1 compound bound to the surface of a microtiter plate well. Those concentrations are conveniently expressed as IC50 values, smaller numbers indicating a lower concentration required to inhibit 50 percent binding and therefore greater potency. Further specifics of this assay are provided hereinafter.
Jurkat cells (ATCC TIB 152), a human T lymphoblastic line, labeled with ^51 chromium were used to assay in vitro binding inhibition provided by various compounds discussed herein.
The plates were prepared as follows: The 25-mer CS-1 compound (SEQ ID NO:1) dissolved at 0.5-1 μg/ml in a buffer of 0.1M NaHCO3 at pH 9.5 that also contained 10 μg/ml of bovine serum albumin (BSA) or a conjugate of the CS-1 compound linked to ovalbumin (CS-1-OVA) dissolved at 1-2.5 μg/ml in the same buffer was used as the substrate. Each well of the microtiter plates was coated with 50 μl of substrate or buffer alone for controls. The wells were permitted to dry out completely and were then rinsed twice with PBS at pH 7.4. Non-specific binding sites of each well were then blocked using 200 μl per well of RPMI/1 percent BSA for two hours at room temperature.
Jurkat cells (3-5×10^6 cells) were placed into a 15 ml Falcon™ round-bottom tube with a cap. The tube was centrifuged, and the extra medium was then removed.
Two hundred microliters of a ^51 Cr labeling solution were added to the centrifuged cells and maintained in contact with the cells for 90-120 minutes in a warm room. […] Longer contact times provide a greater amount of labeling but lower cell viability.
The labeled cells are washed with (i) complete medium, (ii) 1 mM EDTA/PBS and then (iii) RPM1/1 percent BSA free of serum components. The cells are centrifuged after each washing. The cells are finally resuspended in serum-free RPMI/1 percent BSA at a concentration of 1×10^6 viable cells/ml, which provides a concentration that is diluted by one-half in the assay.
Inhibitor compounds are prepared as stock solutions at 20 mg/ml in DMSO in 1.5 ml cryogenic screwcap vials, and were stored at -70° C. Using Flow™ round-bottom or V-bottom microtiter plates, the inhibitor compounds were prepared at twice the assay concentration in RPMI/1 percent BSA at 60 μl/well.
Four initial dilutions were typically used.
The ^51 Cr-labeled cells ([…] at 60 μl/well) were then admixed with the diluted compound solutions. The admixtures were maintained at room temperature (about 22° C.) for 30 minutes.
One hundred microliters of each inhibitor compound/cell admixture were transferred to the substrate-coated wells. This was done in triplicate for each dilution. The resulting plates were incubated for 30 minutes at 37° C. and then washed gently three times with RPMI/1 percent BSA at 200 μl/well. Binding was observed microscopically, particularly after the second wash.
The bound cells were then lysed by the addition of a 0.5 percent solution of sodium dodecylsulfate in water at 100 μl/well. The resulting solutions were then processed for counting and calculation of IC50 values following usual procedures.
The data of Table 1 are normalized to the binding of SEQ ID NO:3. […] Multiple assays for the same compound were averaged.

[2] = Retention of potency in PBS containing 10 percent mouse or human serum; assay type: in vitro ADME; details: PBS at 7.2-7.4 containing 10 percent mouse or human serum; 24 hours
[3] = system: SJL/J mice; test: Experimental autoimmune encephalomyelitis in mice; assay type: in vivo; details: 1 mg/mouse intraperitoneally at days 8 and 9; FIG. 6
Experimental: EAE was induced in female SJL/J mice (8 to 14 weeks old) by immunization on day zero with 50 μg of a compound corresponding to positions 139-151 of PLP emulsified in a 1:1 mixture of PBS and complete Freund's adjuvant (CFA). Each mouse was injected with 0.2 ml of the adjuvant emulsion subcutaneously (s.c.) at two sites in the hind flank. All mice received 10^7 killed Bordetella pertussis units in 100 μl were injected intravenously 24 to 72 hours later.
Mice were observed daily, beginning at day 8 for clinical signs of EAE, and disease was scored on a scale of 0-5 as: 0=no disease; 1=floppy tail; 2=moderate hind limb weakness; 3=paraparesis; 4=paraplegis with moderate forelimb weakness; 5=qualdriplegis or premoribund state.
The inhibitor compound, Compound ID No. 896.52, N-phenylacetyl-Leu-Asp-Phe-D-Pro-NH2 was administered intraperitoneally at 1 mg/mouse in 0.2 ml of incomplete Freund's adjuvant at days 8 and 9. A compound having a scrambled sequence [N-phenylacetyl-Asp-Leu-Phe-D-Pro-NH2 ] was similarly administered to serve as a control.
Summed or averaged scores for clinical signs were plotted vs. time. The area under the resulting curves was calculated between day 8 and day 35 to calculate percentage inhibition of EAE by an inhibitor compound. The percent inhibition was calculated as follows:
[…]

T1 sequence (P13612 34-1032): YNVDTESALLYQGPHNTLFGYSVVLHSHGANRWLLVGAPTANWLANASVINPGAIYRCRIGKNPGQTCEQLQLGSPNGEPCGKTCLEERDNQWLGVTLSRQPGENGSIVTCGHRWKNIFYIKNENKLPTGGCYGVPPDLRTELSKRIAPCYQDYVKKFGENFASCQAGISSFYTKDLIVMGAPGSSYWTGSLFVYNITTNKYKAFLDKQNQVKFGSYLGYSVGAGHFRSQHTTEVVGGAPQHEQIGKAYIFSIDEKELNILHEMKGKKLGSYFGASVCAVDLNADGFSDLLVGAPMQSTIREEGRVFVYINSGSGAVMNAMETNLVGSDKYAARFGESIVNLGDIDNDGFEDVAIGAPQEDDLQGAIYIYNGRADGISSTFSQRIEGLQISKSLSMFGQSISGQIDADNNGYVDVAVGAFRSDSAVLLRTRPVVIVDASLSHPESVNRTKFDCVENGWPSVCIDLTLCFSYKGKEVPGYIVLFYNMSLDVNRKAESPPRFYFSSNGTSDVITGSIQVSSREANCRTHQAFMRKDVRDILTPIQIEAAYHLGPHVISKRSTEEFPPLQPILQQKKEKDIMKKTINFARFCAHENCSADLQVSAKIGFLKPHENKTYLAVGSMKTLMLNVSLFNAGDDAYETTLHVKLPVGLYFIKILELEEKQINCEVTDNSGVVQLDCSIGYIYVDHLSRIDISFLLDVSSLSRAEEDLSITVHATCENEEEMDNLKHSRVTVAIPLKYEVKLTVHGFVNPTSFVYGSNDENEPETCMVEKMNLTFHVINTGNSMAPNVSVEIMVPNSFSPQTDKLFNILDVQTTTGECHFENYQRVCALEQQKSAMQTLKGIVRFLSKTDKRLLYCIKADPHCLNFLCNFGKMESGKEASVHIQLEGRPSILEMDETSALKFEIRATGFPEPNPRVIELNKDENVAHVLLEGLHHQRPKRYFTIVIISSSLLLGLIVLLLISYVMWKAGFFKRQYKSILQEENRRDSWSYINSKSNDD
T1 sequence (P05556 21-798): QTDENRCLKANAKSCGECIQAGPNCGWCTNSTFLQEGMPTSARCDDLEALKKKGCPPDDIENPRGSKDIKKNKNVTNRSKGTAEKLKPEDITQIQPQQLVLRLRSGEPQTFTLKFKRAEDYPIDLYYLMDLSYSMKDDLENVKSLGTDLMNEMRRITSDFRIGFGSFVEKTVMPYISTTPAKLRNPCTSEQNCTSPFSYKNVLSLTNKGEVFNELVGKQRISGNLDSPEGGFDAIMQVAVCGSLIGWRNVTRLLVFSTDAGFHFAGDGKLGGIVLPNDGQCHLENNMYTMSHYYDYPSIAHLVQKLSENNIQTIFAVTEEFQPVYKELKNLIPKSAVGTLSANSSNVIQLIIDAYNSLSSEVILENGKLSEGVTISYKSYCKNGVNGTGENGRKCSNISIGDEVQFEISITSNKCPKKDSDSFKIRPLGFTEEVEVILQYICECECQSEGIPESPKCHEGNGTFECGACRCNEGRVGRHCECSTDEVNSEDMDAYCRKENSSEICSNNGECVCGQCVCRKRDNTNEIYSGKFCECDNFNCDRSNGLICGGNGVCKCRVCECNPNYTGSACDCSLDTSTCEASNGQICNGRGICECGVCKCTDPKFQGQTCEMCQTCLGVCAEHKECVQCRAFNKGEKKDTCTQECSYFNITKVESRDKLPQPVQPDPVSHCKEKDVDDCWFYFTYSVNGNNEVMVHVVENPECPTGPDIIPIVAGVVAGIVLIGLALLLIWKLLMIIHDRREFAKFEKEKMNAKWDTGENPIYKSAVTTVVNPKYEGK

Q: For `CC(C)C[C@H](NC(=O)Cc1ccccc1)C(=O)N[C@@H](CC(=O)O)C(=O)N[C@@H](Cc1ccccc1)C(=O)N1CCC[C@@H]1C(N)=O` [896.52, N-phenylacetyl-Leu-Asp-Phe-D-Pro-NH2] (PhAc-LDF[dP]-NH2), which “IC50 value, times less than the IC50 value for the standard 10-mer” value ([1]; as shown in Table 1) is on record?
A: Its value is “about 312 times”.

Q: And the “Relative Potency” value [1]?
A: The value was 313.

Q: What about the “loss of potency in serum-containing buffer” value [2] of the same compound?
A: Its value is “no loss of potency”.

Q: And the “clinical signs of EAE” value [3]?
A: Its value is “marked improvement in clinical signs”.

Q: With `CC(C)C[C@H](NC(=O)[C@H](CC(=O)O)NC(=O)Cc1ccccc1)C(=O)N[C@@H](Cc1ccccc1)C(=O)N1CCC[C@@H]1C(N)=O` [N-phenylacetyl-Asp-Leu-Phe-D-Pro-NH2, reference compound] (PhAc-DLF[dP]-NH2) as the compound, how does the “binding inhibition, in words (compared with standard 10-mer of SEQ ID NO:3 or other compounds)” value [1] read?
A: The value was “no inhibition of VLA-4”.

Q: And the “Relative Potency” value [1]?
A: The value was 0.
